The subject of experiment [1] is human colorectal cancer cells HCT116. Nature of the experiment: In vivo combination study, HCT116 KRAS mutant colorectal cancer xenograft model. As to conditions: oral, 28 days, single agent. Here is the method:
(§1) More specifically, the compound of Example 1 is tested in combination with either the pan-RAF inhibitor compound or the CDK4/6 inhibitor compound in HCT116, a KRAS mutant colorectal cancer xenograft model. Also, the compound of Example 1 is tested in combination with either the CDK4/6 inhibitor compound or DC101 in NCI-H441, A549, and NCI-H2122, KRAS mutant non-small cell lung cancer (NSCLC) xenograft models.
The HCT116 combination efficacy study is done in athymic nude rats. Expand human colorectal cancer cells HCT116 (ATCC, #CCL-247) in culture, harvest and inject 5×10e^6 cells in 200 μL of 1:1 HBSS+matrigel solution subcutaneously on to the rear right flank of female NIH nude rats (120-145 gm, Taconic Farms). Measure tumor growth and body weight twice per week beginning the seventh day after the implantation. When average tumor sizes reach 200-300 mm^3, randomize animals and group into groups of five to seven animals. Prepare test compound in an appropriate vehicle (see below) and administer by oral gavage for 21 to 28 days. Tumor response is determined by tumor volume measurement performed twice a week during the course of treatment. Vehicle used in this study is 1% HEC (hydroxy ethyl cellulose)/0.25% Tween® 80/0.05% Antifoam. The compound of Example 1 and the pan-RAF inhibitor compound are formulated in 1% HEC/0.25% Tween® 80/0.05% Antifoam. The CDK4/6 inhibitor compound is formulated in 1% HEC in 25 mM Sodium phosphate buffer, pH 2.

In experiment [2] the test system is human non-small cell lung cancer cells NCI-H441 (KRAS_G12V). Kind of experiment: In vivo combination study, NCI-H441 NSCLC xenograft model. As to conditions: single agent. Here is the method:
as §1
(§2) Combination efficacy is also tested in three KRAS mutant NSCLC xenograft models including A549 (KRAS_G12S) in SCID mice as well as NCI-H441 (KRAS_G12V) and NCI-H2122 (KRAS_G12C) in athymic nude mice. Expand human non-small cell lung cancer cells NCI-H441 (ATCC, #CRL-5807) and NCI-H2122 (ATCC, #CRL-5985) in culture, harvest and inject 5×10e^6 cells in 200 μL of 1:1 HBSS+matrigel solution subcutaneously on to the rear right flank of female athymic nude mice (20-22 gm, Harlan Laboratories). Expand human non-small cell lung cancer cells A549 (ATCC, #CC1-185) in culture, harvest and inject 5×10e^6 cells in 200 μL of 1:1 HBSS+matrigel solution subcutaneously on to the rear right flank of female CB-17 SCID mice (18-20 gm, Taconic Farms). For all cell lines, measure tumor growth and body weight twice per week beginning the seventh day after the implantation. When average tumor sizes reach 200-300 mm^3, randomize animals and group into groups of five to seven animals. Prepare test compound in an appropriate vehicle (see below) and administer by oral gavage (compound of Example 1 and the CDK4/6 inhibitor compound) or intraperitoneally (DC101) for 21 to 28 days. Tumor response is determined by tumor volume measurement performed twice a week during the course of treatment. Vehicle used in these studies is 1% HEC/0.25% Tween® 80/0.05% Antifoam. The compound of Example 1 is formulated in 1% HEC/0.25% Tween® 80/0.05% Antifoam and the CDK4/6 inhibitor compound is formulated in 1% HEC in 25 mM sodium phosphate buffer, pH 2. […] In the same NCI-H441 xenograft model, DC101 in phosphate buffer is also administered intraperitoneally twice per week (BIW) as a single agent or in combination with the compound of Example 1, 50 mpk, QD for 28 days.

Experiment [3] has as its system human non-small cell lung cancer cells NCI-H2122 (KRAS_G12C). Kind of experiment: In vivo combination study, NCI-H2122 NSCLC xenograft model. Also on record: species or system female athymic nude mice. The settings on record: single agent. The procedure:
as §1, §2

Experiment [4] concerns human non-small cell lung cancer cells A549 (KRAS_G12S). Kind of experiment: In vivo combination study, A549 NSCLC xenograft model. On the set-up: species or system female CB-17 SCID mice. The settings on record: single agent. The procedure:
as §1, §2

The source of these data is patent US9469652B2, “ERK inhibitors” (Eli Lilly and Company, priority 2014, dated 2016).

With `CCN1CCN(Cc2ccc(Nc3ncc(F)c(-c4cc(F)c5nc(C)n(C(C)C)c5c4)n3)nc2)CC1` [CDK4/6 inhibitor, [5-(4-ethyl-piperazin-1-ylmethyl)-pyridin-2-yl]-[5-fluoro-4-(7-fluoro-3-isopropyl-2-methyl-3H-benzoimidazol-5-yl)-pyrimidin-2-yl]-amine, reference compound], the “Delta T/C %” value stood at 24% in experiment [1] (20 mg/kg QD); 19% in experiment [2] (50 mg/kg QD, oral, 28 days); 47% in experiment [3] (50 mg/kg QD, oral, 28 days); 49% in experiment [4] (50 mg/kg QD, oral, 28 days). The TGI % in experiment [1] (20 mg/kg QD) is given as 76%. The tumor growth inhibition is listed as 81% in experiment [2] (50 mpk), 53% in experiment [3] (50 mpk) and 51% in experiment [4] (50 mpk).

`CNc1ncc2cc(-c3cc(NC(=O)NCCC(C)(C)C)c(F)cc3C)c(C)nc2n1` [pan-RAF inhibitor, 1-(3,3-dimethylbutyl)-3-(2-fluoro-4-methyl-5-(7-methyl-2-(methylamino)pyrido[2,3-d]pyrimidin-6-yl)phenyl)urea]: the “Delta T/C %” value is 71% in experiment [1] (10 mg/kg BID) and 32% in experiment [1] (20 mg/kg BID). Moreover, the TGI % is recorded as 29% in experiment [1] (10 mg/kg BID) and 68% in experiment [1] (20 mg/kg BID).
